pIC50: −log10 of the molar value. Calls of active or inactive are those of the source. The rule behind the calls is not given here.

Assay [1] addresses Acetylcholinesterase (Electrophorus electricus, UniProt O42275).
Description: Inhibition of electric eel AChE using acetylthiocholine chloride as substrate preincubated for 15 mins by Ellman's method
The target of another assay is Cholinesterase (Equus caballus, UniProt P81908).
In assay [2] the target is Acetylcholinesterase (Homo sapiens, UniProt P22303). The experiment in a line: Inhibition of human recombinant AChE using acetylthiocholine chloride as substrate preincubated for 15 mins by Ellman's method. In general terms: In Ellman's method for cholinesterases, released thiocholine reacts with DTNB.
Assay [3] is described as follows: Inhibition of […]-pretreated amyloid beta (1 to 42) self-aggregation at 20 uM after 48 hrs by thioflavin T based fluorometric assay.
Assay [4] is described as follows: Metal chelating activity of the compound assessed as zinc ion complex formation at 40 uM after 30 mins by UV-vis spectrometry. In kind it is functional.
Assay [5] can be described thus: Metal chelating activity of the compound assessed as cupric ion complex formation at 40 uM after 30 mins by UV-vis spectrometry. In kind it is functional.
The nature of assay [6]: Metal chelating activity of the compound assessed as ferrous ion complex formation at 40 uM after 30 mins by UV-vis spectrometry. Type of assay: functional.

Chain of Acetylcholinesterase (Homo sapiens, UniProt P22303) (P22303 whole entry): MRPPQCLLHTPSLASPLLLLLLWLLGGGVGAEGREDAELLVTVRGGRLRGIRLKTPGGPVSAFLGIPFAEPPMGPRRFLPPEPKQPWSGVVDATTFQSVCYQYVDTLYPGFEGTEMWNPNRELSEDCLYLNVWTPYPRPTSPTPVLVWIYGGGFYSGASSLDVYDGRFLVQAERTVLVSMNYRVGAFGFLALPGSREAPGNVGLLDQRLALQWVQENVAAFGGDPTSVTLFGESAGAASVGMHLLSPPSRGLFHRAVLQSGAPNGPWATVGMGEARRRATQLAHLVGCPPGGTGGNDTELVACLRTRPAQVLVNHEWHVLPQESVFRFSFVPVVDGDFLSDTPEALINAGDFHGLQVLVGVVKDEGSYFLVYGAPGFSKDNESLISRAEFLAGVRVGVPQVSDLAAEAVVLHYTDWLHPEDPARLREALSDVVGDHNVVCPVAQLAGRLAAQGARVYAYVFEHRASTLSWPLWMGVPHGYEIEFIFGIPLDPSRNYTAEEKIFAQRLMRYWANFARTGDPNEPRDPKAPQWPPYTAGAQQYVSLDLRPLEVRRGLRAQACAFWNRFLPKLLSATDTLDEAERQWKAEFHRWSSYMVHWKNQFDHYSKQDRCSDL
Chain of Cholinesterase (P81908 whole entry): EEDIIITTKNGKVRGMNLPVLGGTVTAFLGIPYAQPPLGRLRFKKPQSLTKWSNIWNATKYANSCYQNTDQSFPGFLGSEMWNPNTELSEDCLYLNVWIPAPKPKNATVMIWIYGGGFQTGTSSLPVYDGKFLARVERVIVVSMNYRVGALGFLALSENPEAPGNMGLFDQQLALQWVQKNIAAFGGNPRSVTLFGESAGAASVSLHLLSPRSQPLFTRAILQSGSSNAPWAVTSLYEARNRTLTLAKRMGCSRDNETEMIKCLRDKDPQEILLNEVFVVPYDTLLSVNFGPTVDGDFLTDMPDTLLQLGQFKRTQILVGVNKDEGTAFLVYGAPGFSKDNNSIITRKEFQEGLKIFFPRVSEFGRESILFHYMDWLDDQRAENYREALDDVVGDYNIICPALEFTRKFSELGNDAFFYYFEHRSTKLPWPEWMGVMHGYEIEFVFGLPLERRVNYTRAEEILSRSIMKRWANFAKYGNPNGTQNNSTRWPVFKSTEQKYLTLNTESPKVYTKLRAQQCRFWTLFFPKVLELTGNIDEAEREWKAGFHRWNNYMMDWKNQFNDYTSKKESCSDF
Chain of Acetylcholinesterase (Electrophorus electricus, UniProt O42275) (O42275 whole entry): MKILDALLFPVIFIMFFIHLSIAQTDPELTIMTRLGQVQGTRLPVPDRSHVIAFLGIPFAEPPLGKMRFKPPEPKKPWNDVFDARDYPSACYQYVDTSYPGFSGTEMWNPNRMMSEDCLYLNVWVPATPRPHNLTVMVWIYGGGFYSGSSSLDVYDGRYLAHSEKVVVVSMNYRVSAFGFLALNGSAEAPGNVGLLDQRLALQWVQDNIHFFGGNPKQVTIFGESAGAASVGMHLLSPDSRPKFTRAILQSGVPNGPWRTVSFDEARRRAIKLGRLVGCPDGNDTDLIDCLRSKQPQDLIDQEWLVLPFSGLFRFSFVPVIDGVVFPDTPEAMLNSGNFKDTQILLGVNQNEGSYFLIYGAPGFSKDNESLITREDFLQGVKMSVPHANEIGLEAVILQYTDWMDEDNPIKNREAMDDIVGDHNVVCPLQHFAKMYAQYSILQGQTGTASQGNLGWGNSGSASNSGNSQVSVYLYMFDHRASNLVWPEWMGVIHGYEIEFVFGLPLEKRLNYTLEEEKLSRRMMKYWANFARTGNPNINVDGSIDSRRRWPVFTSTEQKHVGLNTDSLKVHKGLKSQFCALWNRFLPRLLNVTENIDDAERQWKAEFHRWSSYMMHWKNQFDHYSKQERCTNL

Usually pIC50 stands for −log10 of the IC50, conventionally taken in molar units. For the compound `Oc1ccccc1CNCCCCNc1c2c(nc3ccccc13)CCCC2`, the pIC50 is 6.60 against Acetylcholinesterase [1] and 7.69 on Cholinesterase.

Regarding `Oc1ccccc1CNCCNc1c2c(nc3cc(Cl)ccc13)CCCC2`, the results for the pIC50 against Acetylcholinesterase [1] and against Cholinesterase were 7.65 and 8.00, respectively.

By inhibition is commonly meant the relative decrease from the control value, in per cent. As for `CN(C)c1ccccc1CNCCCCCCCCNc1c2c(nc3ccccc13)CCCC2`, the negative logarithm of the IC50 (pIC50) is 8.81 against Acetylcholinesterase [1], 8.39 at Acetylcholinesterase [2] and 8.68 against Cholinesterase. Also, in assay [3], the inhibition came out at 38.6%.

With `CN(C)c1ccccc1CNCCCCCCCCCNc1c2c(nc3ccccc13)CCCC2`, the pIC50 against Acetylcholinesterase [1] was 9.26; at Acetylcholinesterase [2] it was 8.45; at Cholinesterase, 8.58. The result in assay [4], in assay [5] and in assay [6] was Active. Besides, the inhibition in assay [3] is 39.4%.

Regarding `Oc1ccccc1CNCCNc1c2c(nc3ccccc13)CCCC2`, the negative-log IC50 (pIC50) was 6.84 at Acetylcholinesterase [1] and 8.00 at Cholinesterase.

Turning to `Oc1ccccc1CNCCCCCCNc1c2c(nc3cc(Cl)ccc13)CCCC2`, the figures for the pIC50 at Acetylcholinesterase [1] and against Cholinesterase were 7.37 and 7.95, respectively.

On to `Oc1ccccc1CNCCCCCCCCNc1c2c(nc3ccccc13)CCCC2`, for which the negative-log IC50 (pIC50) on Acetylcholinesterase [1] was 8.21; against Cholinesterase, 8.20.

Turning to `Oc1ccccc1CNCCCNc1c2c(nc3ccccc13)CCCC2`, the figures for the pIC50 against Acetylcholinesterase [1] and on Cholinesterase were 6.88 and 7.34, respectively.

Consider `Oc1ccccc1CNCCCCCCNc1c2c(nc3ccccc13)CCCC2`, for which the values for the pIC50 against Acetylcholinesterase [1] and against Cholinesterase were 7.60 and 8.02, respectively.

On to `CCN(CC)c1ccccc1CNCCCCCCCCNc1c2c(nc3ccccc13)CCCC2`, for which the pIC50 at Acetylcholinesterase [1] was 8.87; on Cholinesterase, 8.55. Besides, the inhibition in assay [3] was 40.1%.

As for `Oc1ccccc1CNCCCCCCCNc1c2c(nc3ccccc13)CCCC2`, the results for the negative-log IC50 (pIC50) against Acetylcholinesterase [1] and against Cholinesterase were 8.02 and 8.23, respectively.

Consider `c1ccc(CNCCCCCCCCNc2c3c(nc4ccccc24)CCCC3)nc1`, for which the pIC50 against Acetylcholinesterase [1] is 8.53; against Cholinesterase it was 8.52.

Turning to `Oc1ccccc1CNCCCCNc1c2c(nc3cc(Cl)ccc13)CCCC2`, the pIC50 was 6.90 on Acetylcholinesterase [1] and 7.55 at Cholinesterase.

For the compound `Oc1ccccc1CNCCCCCCCCCNc1c2c(nc3ccccc13)CCCC2`, the negative logarithm of the IC50 (pIC50) was 8.12 against Acetylcholinesterase [1] and 8.09 against Cholinesterase.

Regarding `CN(C)c1ccccc1CNCCCCCCCNc1c2c(nc3ccccc13)CCCC2`, the negative logarithm of the IC50 (pIC50) is 8.46 against Acetylcholinesterase [1], 8.29 on Acetylcholinesterase [2] and 8.53 against Cholinesterase. Moreover, the inhibition in assay [3] was 30.7%.

In the case of `Oc1ccccc1CNCCCCCCCNc1c2c(nc3cc(Cl)ccc13)CCCC2`, the pIC50 against Acetylcholinesterase [1] is 7.98; at Cholinesterase, 7.75.

Regarding `Oc1ccccc1CNCCCCCCCCNc1c2c(nc3cc(Cl)ccc13)CCCC2`, the pIC50 on Acetylcholinesterase [1] was 8.17; against Cholinesterase it was 7.73. Moreover, the inhibition in assay [3] is 25.8%.

As for `Oc1ccccc1CNCCCNc1c2c(nc3cc(Cl)ccc13)CCCC2`, the negative-log IC50 (pIC50) against Acetylcholinesterase [1] is 7.36; on Cholinesterase, 7.12.

On to `Oc1ccccc1CNCCCCCCCCCNc1c2c(nc3cc(Cl)ccc13)CCCC2`, for which the pIC50 is 8.11 at Acetylcholinesterase [1] and 7.64 against Cholinesterase.

For the origin of these results see ChEMBL document CHEMBL2146404, “O-Hydroxyl- or o-amino benzylamine-tacrine hybrids: multifunctional biometals chelators, antioxidants, and inhibitors of cholinesterase activity and amyloid-β aggregation” (Bioorg Med Chem, 2012).
